Experimental data reported in patent US20260200885A1, “BENZOPYRONE COMPOUNDS AS WELL AS PREPARATION METHOD THEREFOR AND USE THEREOF” (CHENGDU DI’AO JIUHONG PHARMACEUTICAL FACTORY, priority 2022, published 2026).

tested on: A2780 cells; assay: Determination of cell activity (CellTiter-Glo Luminescent Cell Viability Assay); type: cell-based; conditions: Homo sapiens, 168 h; A2780 cells, 7 days treatment, CellTiter-Glo; read-out: IC50
Method: To examine the effect of compounds on cell viability, ATP was directly quantified using the CellTiter-Glo Luminescent Cell Viability Assay (Promega) to determine the number of viable cells.
Cell density was selected based on optimal signal intensity and growth curve for the inoculation of A2780 cells. The cells were incubated at 37° C. and 5% C02 overnight. Cells were treated with blank group, DMSO group and compound group, respectively, at 37° C. and 5% C02 for 7 days. The prepared solutions were added to cell wells according to the instructions of CellTiter-Glo (Promega), and shaken at a speed of 400 g for 2 min. Then, the solutions were centrifuged at 1000 g for 2 min and incubated at rest for 30 min to ensure a complete reaction. […] readings were taken using a multi-label microplate reader (Perkin Elmer) to calculate IC50 values.

Compound | IC50 [nM]
CC(Oc1ccc2c(-c3ccc(F)cc3Cl)cc(=O)oc2c1)C(=O)C1CCN(C(=O)C(Cl)Cl)CC1 (stereo not drawn) [Compound A-1-7-1-3] | 20 to 100
CC(Oc1ccc2c(-c3ccc(F)cc3Cl)cc(=O)oc2c1)C(=O)[C@H]1CCCNC1 (stereo partly drawn) [Compound A-1-8-1-1] | 100 to 1000
Cc1ccccc1-c1cc(=O)oc2cc(OC(C)C(=O)c3cccc(C(=O)O)c3)ccc12 (stereo not drawn) [Compound A-1-2-1-98] | < 20
C[C@H](Oc1ccc2c(-c3ccc(F)cc3Cl)cc(=O)oc2c1)C(=O)c1ccccc1C(=O)O [Compound A2-1-1] | 100 to 1000
CC(Oc1ccc2c(-c3ccccc3F)cc(=O)oc2c1)C(=O)c1cccc(C(=O)O)c1 (stereo not drawn) [Compound A-1-2-1-1] | 100 to 1000
CC(Oc1ccc2cc(-c3ccccc3)c(=O)oc2c1)C(=O)N1CCCC(C#N)C1 (stereo not drawn) [Compound A-1-2-2-2] | > 1000
CCc1ccccc1-c1cc(=O)oc2cc(OC(C)C(=O)c3cccc(C(=O)O)c3)ccc12 (stereo not drawn) [Compound A-1-2-1-101] | 100 to 1000
CC(=O)Oc1ccc(C(=O)C(C)Oc2ccc3c(-c4ccc(F)cc4Cl)cc(=O)oc3c2)cc1 (stereo not drawn) [Compound A-1-2-1-83] | < 20
CC(Oc1ccc2c(-c3ccccc3)cc(=O)oc2c1)C(=O)c1cccc(C(=O)O)c1 (stereo not drawn) [Compound A-1-2-1-99] | 100 to 1000
C[C@@H](Oc1ccc2c(-c3ccc(F)cc3Cl)cc(=O)oc2c1)C(=O)c1ccccc1C(=O)O [Compound A1-1-1] | 100 to 1000
Cc1cccc(-c2cc(=O)oc3cc(OC(C)C(=O)c4cccc(C(=O)O)c4)ccc23)c1 (stereo not drawn) [Compound A-1-2-1-100] | 100 to 1000
CC(Oc1ccc2c(C3CCCCC3)cc(=O)oc2c1)C(=O)c1cccc(C(=O)O)c1 (stereo not drawn) [Compound A-1-2-6-2] | 100 to 1000
CC(Oc1ccc2c(-c3cccnc3)cc(=O)oc2c1)C(=O)N1CCCC(C#N)C1 (stereo not drawn) [Compound A-1-2-6-23] | > 1000
CC(Oc1ccc2c(-c3ccccc3Cl)cc(=O)oc2c1)C(=O)c1cccc(C(=O)O)c1 (stereo not drawn) [Compound A-1-2-1-2] | 20 to 100
COc1ccccc1-c1cc(=O)oc2cc(OC(C)C(=O)c3cccc(C(=O)O)c3)ccc12 (stereo not drawn) [Compound A-1-2-1-8] | 100 to 1000

Next, values leading:

IC50 [nM] | Compound
20 to 100 | CNC(=O)c1cccc(C(=O)C(C)Oc2ccc3c(-c4ccc(F)cc4Cl)cc(=O)oc3c2)c1 (stereo not drawn) [Compound A-1-2-1-35]
100 to 1000 | CC(Oc1ccc2c(-c3ccc(F)cc3Cl)cc(=O)oc2c1)C(=O)c1cccc(Cl)c1 (stereo not drawn) [Compound A-1-2-1-72]
20 to 100 | CC(Oc1ccc2c(-c3ccc(F)cc3Cl)cc(=O)oc2c1)C(=O)c1ccsc1 (stereo not drawn) [Compound A-1-10-1-7]
100 to 1000 | CC(Oc1ccc2c(-c3ccc(F)cc3Cl)cc(=O)oc2c1)C(=O)c1ccc[nH]1 (stereo not drawn) [Compound A-1-10-1-4]
100 to 1000 | CC(Oc1ccc2c(-c3ccc(F)cc3Cl)cc(=O)oc2c1)C(=O)c1cccc(Br)c1 (stereo not drawn) [Compound A-1-2-1-73]
< 20 | CC(Oc1ccc2c(-c3ccc(F)cc3Cl)cc(=O)oc2c1)C(=O)c1ccc(O)cc1 (stereo not drawn) [Compound A-1-2-1-82]
20 to 100 | CC(Oc1ccc2c(-c3ccc(F)cc3Cl)cc(=O)oc2c1)C(=O)c1cccc(C(N)=O)c1 (stereo not drawn) [Compound A-1-2-1-36]
20 to 100 | CC(Oc1ccc2c(-c3ccc(F)cc3Cl)cc(=O)oc2c1)C(=O)c1ccoc1 (stereo not drawn) [Compound A-1-10-1-6]
< 20 | CC(Oc1ccc2c(-c3ccc(F)cc3Cl)cc(=O)oc2c1)C(=O)c1cc[nH]c1 (stereo not drawn) [Compound A-1-10-1-5]
100 to 1000 | CC(Oc1ccc2c(-c3ccc(F)cc3Cl)cc(=O)oc2c1)C(=O)c1cccc([N+](=O)[O-])c1 (stereo not drawn) [Compound A-1-2-1-89]

same assay, conditions: Homo sapiens, A2780, 168 h

Compound | IC50 [nM]
CC(Oc1ccc2c(-c3ccc(F)cc3Cl)cc(=O)oc2c1)C(=O)C1CCN(CC(=O)O)CC1 (stereo not drawn) [α-12] | 100 to 1000

tested on: not listed separately; assay: Pharmacokinetic assay in CD1 mice; type: in vivo; conditions: mouse, plasma, po, intragastric administration 5 mg/kg, Table I-3, read-out: T1/2 (h) for oral administration (converted)
Method: pharmacokinetic assay of compounds was carried out in CD1 mice aged 6-8 weeks with IMT1B as a positive control. The compounds and the positive control were dissolved in 30% aqueous hydroxypropyl-β-cyclodextrin solution containing 25% PEG400 and administered via intravenous injection (1 mg/kg) or intragastric administration (5 mg/kg). Blood samples were collected at 0.033, 0.083, 0.25, 0.5, 1, 2, 4, 8, 24 h and 0.083, 0.25, 0.5, 1, 2, 4, 8, 24 h respectively after administration.
The concentration of the compounds in plasma samples was analyzed using the LC-MS/MS method. Pharmacokinetic calculations were performed using WinNonlin (Phoenix™, version 8.3) or other similar software. The following pharmacokinetic parameters were calculated from the plasma concentration vs. time data: for intravenous administration: T1/2, C0, AUClast, AUCinf, MRTinf, Cl, Vss, regression coefficient, etc.; for oral administration: T1/2, Cmax, Tmax, AUClast, AUCinf, bioavailability, etc. The above parameter data were statistically calculated and described using descriptive statistics such as mean value and standard deviation.

half-life [h] | Compound
3.54 | C[C@H](Oc1ccc2c(-c3ccc(F)cc3Cl)cc(=O)oc2c1)C(=O)c1ccccc1C(=O)O [Compound A2-1-1]
3.76 | CC(Oc1ccc2c(-c3ccc(F)cc3Cl)cc(=O)oc2c1)C(=O)c1ccc[nH]1 (stereo not drawn) [Compound A-1-10-1-4]
3.89 | C[C@@H](Oc1ccc2c(-c3ccc(F)cc3Cl)cc(=O)oc2c1)C(=O)c1ccc(C(=O)O)cc1 [Compound A1-1-9]
9.73 | C[C@@H](Oc1ccc2c(-c3ccc(F)cc3Cl)cc(=O)oc2c1)C(=O)c1ccnc(C(=O)O)c1 [Compound A1-4-5]
